From BindingDB's records for doi:10.3109/14756366.2011.604851 (Shandong University, 2012) come the findings set out here.

Assay [1] addresses T1, Gag-Pol polyprotein (Human immunodeficiency virus type 1 group M subtype B (isolate HXB2), UniProt P04585). Description: ST Inhibitory Assay. The procedure:
Insertion of two newly processed 3'-viral DNA ends into the host-cell chromosome. All biological assays were performed essentially as previously described [Dayam et al., J. Med. Chem., 51:1136-1144].

Assay [2] addresses T1, Gag-Pol polyprotein. Description: 3'-P Inhibitory Assay. The procedure:
Cleavage of a dinucleotide from each 3'-end of viral cDNA. All biological assays were performed essentially as previously described [Dayam et al., J. Med. Chem., 51:1136-1144].

Structures are written as SMILES. pIC50: −log10 of the molar value.

As to `O=C(/C=C/c1ccc(O)c(O)c1)Nc1ccc(S(=O)(=O)Nc2ccc(Cl)c(Cl)c2)cc1` [(E)-3-(3,4-Dihydroxyphenyl)-N-(4-(3,4-Dichlorophenylsulfamoyl)phenyl)acrylamide (11h)], the pIC50 (as a rule, the IC50 on a negative log10 scale, so that one unit is a factor of ten) in assay [1] is 5.22; in assay [2], 4.77.

Regarding `O=C(Nc1ccc(S(=O)(=O)Nc2ccccc2Br)cc1)c1cc(O)c(O)c(O)c1` [N-(4-(2-Bromophenylsulfamoyl)phenyl)galloylamide (9g)], the pIC50 in assay [1] was 5.85; in assay [2], 5.30.

With `O=C(/C=C/c1ccc(O)c(O)c1)Nc1ccc(S(=O)(=O)Nc2ccccc2)cc1` [(E)-3-(3,4-Dihydroxyphenyl)-N-(4-phenylsulfamoylphenyl)acrylamide (11m)], the values for the pIC50 in assay [1] and in assay [2] were 4.92 and 4.80, respectively.

As to `O=C(/C=C/c1ccc(O)c(O)c1)Nc1ccc(S(=O)(=O)Nc2cccc(Cl)c2F)cc1` [(E)-3-(3,4-Dihydroxyphenyl)-N-(4-(3-chloro-2-fluorophenylsulfamoyl)phenyl)acrylamide (11l)], the pIC50 in assay [1] was 4.85; in assay [2], 4.66.

As to `O=C(Nc1ccc(S(=O)(=O)Nc2ccc(Br)cc2)cc1)c1cc(O)c(O)c(O)c1` [N-(4-(4-Bromophenylsulfamoyl)phenyl)galloylamide (9e)], the pIC50 was 6.15 in assay [1] and 5.52 in assay [2].

For the compound `O=C(Nc1ccc(S(=O)(=O)Nc2ccc(F)cc2)cc1)c1cc(O)c(O)c(O)c1` [N-(4-(4-Fluorophenylsulfamoyl)phenyl)galloylamide (9a)], the negative-log IC50 (pIC50) in assay [1] was 6.05; in assay [2] it was 5.15.

As for `Cc1ccccc1NS(=O)(=O)c1ccc(NC(=O)c2cc(O)c(O)c(O)c2)cc1` [N-(4-(2-Methylphenylsulfamoyl)phenyl)galloylamide (9s)], the pIC50 in assay [1] is 5.70; in assay [2] it was 5.15.

In the case of `O=C(Nc1ccc(S(=O)(=O)Nc2cccc(Br)c2)cc1)c1cc(O)c(O)c(O)c1` [N-(4-(3-Bromophenylsulfamoyl)phenyl)galloylamide (9f)], the results for the pIC50 in assay [1] and in assay [2] were 6.15 and 5.70, respectively.

For the compound `Cc1cc(C)cc(NS(=O)(=O)c2ccc(NC(=O)c3cc(O)c(O)c(O)c3)cc2)c1` [N-(4-(3,5-Dimethylphenylsulfamoyl)phenyl)galloylamide (9k)], the pIC50 in assay [1] was 5.60; in assay [2], 5.10.

As to `CC(=O)Oc1ccc(/C=C/C(=O)Nc2ccc(S(=O)(=O)Nc3cccc(Cl)c3F)cc2)cc1OC(C)=O` [(E)-3-(3,4-Diacetoxyphenyl)-N-(4-(3-chloro-2-fluorophenylsulfamoyl)phenyl)acrylamide (10l)], the pIC50 in assay [1] was 4.89; in assay [2], 4.30.

Turning to `O=C(/C=C/c1ccc(O)c(O)c1)Nc1ccc(S(=O)(=O)Nc2ccc(F)c(Br)c2)cc1` [(E)-3-(3,4-Dihydroxyphenyl)-N-(4-(3-bromo-4-fluorophenylsulfamoyl)phenyl)acrylamide (11u)], the pIC50 in assay [1] is 5.40; in assay [2], 5.10.

Consider `O=C(Nc1ccc(S(=O)(=O)Nc2cccc(Br)c2)cc1)c1ccc(O)c(O)c1` [N-(4-(3-Bromophenylsulfamoyl)phenyl)3,4-dihydroxybenzamide (11x)], for which the pIC50 in assay [1] is 4.82; in assay [2], 4.35.

Turning to `CC(=O)Oc1cc(C(=O)Nc2ccc(S(=O)(=O)Nc3ccccc3)cc2)cc(OC(C)=O)c1OC(C)=O` [N-(4-Phenylsulfamoylphenyl)-3,4,5-triacetoxybenzamide (8m)], the results for the pIC50 in assay [1] and in assay [2] were 5.80 and 5.10, respectively.

`O=C(Nc1ccc(S(=O)(=O)Nc2cccc(Cl)c2F)cc1)c1cc(O)c(O)c(O)c1` [N-(4-(3-chloro-2-fluorophenylsulfamoyl)phenyl)galloylamide (9l)]: the pIC50 in assay [1] was 6.10; in assay [2], 5.89.

Consider `CC(=O)Oc1cc(C(=O)Nc2ccc(S(=O)(=O)Nc3cccc(Cl)c3F)cc2)cc(OC(C)=O)c1OC(C)=O` [N-(4-(3-chloro-2-fluorophenylsulfamoyl)phenyl)-3,4,5-triacetoxybenzamide (8l)], for which the pIC50 in assay [1] was 5.70; in assay [2], 5.30.
